Activity calls are given as the source filed them. No cut-off for these calls is given here.
Columns and labels:
Assay type in all cases: functional
[1] = molecular target: Substance-P receptor (Cavia porcellus) (UniProt P30547); test: Compound was evaluated for NK-1 receptor antagonistic activity in the guinea pig trachea; Inactive
Substance-K receptor = molecular target: T1, Substance-K receptor (Cavia porcellus, UniProt Q64077); test: Compound was evaluated for NK-2 receptor antagonistic activity in the guinea pig trachea; conditions: read-out: pA2 (converted)
T1 sequence (Q64077 whole entry): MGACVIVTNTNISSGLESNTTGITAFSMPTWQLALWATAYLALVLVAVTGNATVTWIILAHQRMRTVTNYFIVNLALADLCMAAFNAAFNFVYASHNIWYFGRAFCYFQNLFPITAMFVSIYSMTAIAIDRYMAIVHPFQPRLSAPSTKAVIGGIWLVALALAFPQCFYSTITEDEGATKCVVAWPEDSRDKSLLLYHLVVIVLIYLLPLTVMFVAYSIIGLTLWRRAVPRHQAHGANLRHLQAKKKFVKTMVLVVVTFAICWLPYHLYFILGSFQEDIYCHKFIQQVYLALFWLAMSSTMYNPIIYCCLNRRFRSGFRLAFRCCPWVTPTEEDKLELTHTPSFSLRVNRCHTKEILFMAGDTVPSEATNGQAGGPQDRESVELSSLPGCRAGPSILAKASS

[2] = molecular target: T2, Neuromedin-K receptor (Cavia porcellus) (UniProt P30098); test: Compound was evaluated for NK-3 receptor antagonistic activity in the guinea pig trachea; Inactive
T2 sequence (whole entry): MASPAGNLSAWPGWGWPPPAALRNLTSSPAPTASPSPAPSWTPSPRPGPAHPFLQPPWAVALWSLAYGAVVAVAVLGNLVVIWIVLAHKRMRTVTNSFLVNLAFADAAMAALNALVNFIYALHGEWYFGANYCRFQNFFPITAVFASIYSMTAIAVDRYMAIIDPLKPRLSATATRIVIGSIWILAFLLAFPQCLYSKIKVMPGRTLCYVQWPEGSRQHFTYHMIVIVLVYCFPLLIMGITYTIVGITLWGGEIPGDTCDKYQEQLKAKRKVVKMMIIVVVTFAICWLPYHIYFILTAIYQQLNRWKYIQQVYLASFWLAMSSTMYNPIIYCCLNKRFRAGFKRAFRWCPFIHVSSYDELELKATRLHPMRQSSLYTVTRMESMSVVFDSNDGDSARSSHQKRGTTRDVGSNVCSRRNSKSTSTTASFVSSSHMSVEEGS

Chain of Substance-P receptor (Cavia porcellus) (P30547 whole entry): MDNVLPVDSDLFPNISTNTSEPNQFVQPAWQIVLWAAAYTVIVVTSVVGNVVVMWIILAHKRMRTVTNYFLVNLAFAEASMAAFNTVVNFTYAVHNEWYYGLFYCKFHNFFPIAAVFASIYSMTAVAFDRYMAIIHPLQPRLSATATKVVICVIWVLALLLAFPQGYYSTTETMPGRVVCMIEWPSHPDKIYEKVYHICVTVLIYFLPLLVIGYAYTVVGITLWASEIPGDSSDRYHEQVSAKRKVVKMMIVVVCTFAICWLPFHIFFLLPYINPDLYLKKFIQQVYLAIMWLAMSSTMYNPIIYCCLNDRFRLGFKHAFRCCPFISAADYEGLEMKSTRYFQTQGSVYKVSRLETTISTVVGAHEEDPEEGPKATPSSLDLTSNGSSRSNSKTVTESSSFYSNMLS

- pA2 [1]: inactive
- Kb (Substance-K receptor): 50.1 nM
- pA2 [2]: inactive
Structure (SMILES): O=c1c2cnn(-c3ccccc3)c2nc2scc(-c3ccccc3)n12

— ChEMBL document CHEMBL1128906, “Synthesis and NK-2 antagonist effect of 1,6-diphenyl-pyrazolo [3,4-d]-thiazolo[3,2-a]4H-pyrimidin-4-one” (Bioorg Med Chem Lett, 1996)
